Measured values from PubChem BioAssay AID250 (DTP/NCI, 2004).
Toxic doses and inconclusive results are not listed.

Test system: BDF1 mice, L1210 leukemia sc, survival T/C
Assay: NCI In Vivo Anticancer Drug Screen. Data for tumor model L1210 Leukemia (subcutaneous) in B6D2F1 (BDF1) mice
Conditions: endpoint: median survival time, higher = longer survival
How it was run: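 Expressed as T/C: measurement in compound-treated, tumor-bearing mice relative to vehicle-treated control mice, based on survival or tumor size.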

[1] = dose: 108.0 mg/kg/injection, schedule: Q01DX Z (sc), vehicle: methylcellulose (MC)
[2] = dose: 180.0 mg/kg/injection, schedule: Q01DX Z (sc), vehicle: methylcellulose (MC)
[3] = dose: 300.0 mg/kg/injection, schedule: Q01DX Z (sc), vehicle: methylcellulose (MC)
[4] = dose: 500.0 mg/kg/injection, schedule: Q01DX Z (sc), vehicle: methylcellulose (MC)
[5] = dose: 23.0 mg/kg/injection, schedule: Q01DX Z (sc), vehicle: methylcellulose (MC)
[6] = dose: 65.0 mg/kg/injection, schedule: Q01DX Z (sc), vehicle: methylcellulose (MC)
[7] = dose: 14.0 mg/kg/injection, schedule: Q01DX Z (sc), vehicle: methylcellulose (MC)
[8] = dose: 39.0 mg/kg/injection, schedule: Q01DX Z (sc), vehicle: methylcellulose (MC)
[9] = dose: 47.0 mg/kg/injection, schedule: Q01DX Z (sc), vehicle: methylcellulose (MC)
[10] = dose: 78.0 mg/kg/injection, schedule: Q01DX Z (sc), vehicle: methylcellulose (MC)

Compound: CC(CNC(=O)CCOS(C)(=O)=O)NC(=O)CCOS(C)(=O)=O (stereo not given)
- T/C [1]: 105 % of control
- T/C (dose: 180.0 mg/kg/injection, schedule: Q01DX Z (sc), vehicle: carboxymethylcellulose (CMC)): 175 % of control
- T/C [2]: 115 % of control
- T/C (dose: 300.0 mg/kg/injection, schedule: Q01DX Z (sc), vehicle: carboxymethylcellulose (CMC)): 150 % of control
- T/C [3]: 120 % of control
- T/C [4]: 120 % of control
- T/C (dose: 833.0 mg/kg/injection, schedule: Q01DX Z (sc), vehicle: carboxymethylcellulose (CMC)): 110 % of control
- T/C (dose: 833.0 mg/kg/injection, schedule: Q01DX Z (sc), vehicle: methylcellulose (MC)): 110 % of control

Compound: CCC(=O)O[C@H]1CC[C@H]2[C@@H]3CC[C@H]4CC(=O)[C@H](C)C[C@]4(C)[C@H]3CC[C@]12C
- T/C [5]: 100 % of control
- T/C [6]: 100 % of control
- T/C [1]: 100 % of control
- T/C [2]: 100 % of control

Compound: Cn1cnc([N+](=O)[O-])c1Sc1ncnc2nc[nH]c12
- T/C (dose: 3.0 mg/kg/injection, schedule: Q01DX Z (oral), vehicle: methylcellulose (MC)): 100 % of control
- T/C (dose: 5.0 mg/kg/injection, schedule: Q01DX Z (sc), vehicle: methylcellulose (MC)): 100 % of control
- T/C (dose: 8.4 mg/kg/injection, schedule: Q01DX Z (sc), vehicle: methylcellulose (MC)): 100 % of control
- T/C [7]: 100 % of control
- T/C (dose: 23.0 mg/kg/injection, schedule: Q01DX Z (oral), vehicle: methylcellulose (MC)): 100 % of control
- T/C (dose: 28.0 mg/kg/injection, schedule: Q01DX Z (sc), vehicle: methylcellulose (MC)): 110 % of control
- T/C (dose: 39.0 mg/kg/injection, schedule: Q01DX Z (oral), vehicle: methylcellulose (MC)): 100 % of control
- T/C [8]: 100 % of control
- T/C [9]: 115 % of control
- T/C (dose: 65.0 mg/kg/injection, schedule: Q01DX Z (oral), vehicle: methylcellulose (MC)): 100 % of control
- T/C [10]: 120 % of control
- T/C (dose: 360.0 mg/kg/injection, schedule: Q01DX Z (sc), vehicle: methylcellulose (MC)): 110 % of control
- T/C (dose: 500.0 mg/kg/injection, schedule: Q01DX Z (oral), vehicle: methylcellulose (MC)): 155 % of control
- T/C [4]: 122 % of control
- T/C (dose: 600.0 mg/kg/injection, schedule: Q01DX Z (sc), vehicle: methylcellulose (MC)): 105 % of control

Compound: CC(C)CSc1ncnc2nc[nH]c12
- T/C (dose: 38.9 mg/kg/injection, schedule: Q01DX Z (sc), vehicle: methylcellulose (MC)): 100 % of control
- T/C (dose: 64.8 mg/kg/injection, schedule: Q01DX Z (sc), vehicle: methylcellulose (MC)): 100 % of control
- T/C [1]: 100 % of control

Compound: COc1cc([C@@H]2c3cc4c(cc3[C@@H](OC3OC5COC(C)OC5C(O)C3O)[C@H]3COC(=O)[C@H]23)OCO4)cc(OC)c1O (stereo not given in full)
- T/C (dose: 2.0 mg/kg/injection, schedule: Q01DX009 (ip), vehicle: Klucel (hydroxypropylcellulose) (HPC)): 120 % of control
- T/C (dose: 8.0 mg/kg/injection, schedule: Q01DX009 (ip), vehicle: Klucel (hydroxypropylcellulose) (HPC)): 160 % of control
- T/C (dose: 16.0 mg/kg/injection, schedule: Q01DX009 (ip), vehicle: Klucel (hydroxypropylcellulose) (HPC)): 105 % of control

Compound: CC(C)CSc1nc(N)nc2nc[nH]c12
- T/C [7]: 100 % of control
- T/C [5]: 105 % of control
- T/C [8]: 111 % of control
- T/C [6]: 111 % of control
- T/C [1]: 111 % of control
- T/C [2]: 116 % of control
- T/C [3]: 111 % of control

Compound: O=NN(CCCl)C(=O)NC1CC2CCC1C2 (stereo not given)
- T/C (dose: 23.0 mg/kg/injection, schedule: Q01DX Z (oral), vehicle: carboxymethylcellulose (CMC)): 305 % of control
- T/C (dose: 23.0 mg/kg/injection, schedule: Q01DX Z (sc), vehicle: carboxymethylcellulose (CMC)): 321 % of control
- T/C (dose: 39.0 mg/kg/injection, schedule: Q01DX Z (oral), vehicle: carboxymethylcellulose (CMC)): 542 % of control
- T/C (dose: 39.0 mg/kg/injection, schedule: Q01DX Z (sc), vehicle: carboxymethylcellulose (CMC)): 500 % of control
- T/C (dose: 65.0 mg/kg/injection, schedule: Q01DX Z (oral), vehicle: carboxymethylcellulose (CMC)): 236 % of control
- T/C (dose: 65.0 mg/kg/injection, schedule: Q01DX Z (sc), vehicle: carboxymethylcellulose (CMC)): 289 % of control
- T/C (dose: 108.0 mg/kg/injection, schedule: Q01DX Z (oral), vehicle: carboxymethylcellulose (CMC)): 178 % of control

Compound: CS(=O)(=O)OCCCCCCCCCOS(C)(=O)=O
- T/C [9]: 105 % of control
- T/C [10]: 115 % of control
- T/C (dose: 216.0 mg/kg/injection, schedule: Q01DX Z (sc), vehicle: methylcellulose (MC)): 160 % of control
